Test system: 233499-124-R-J3-PDC complex spheroid viability, % test/control
Assay: Anticancer human tumor 233499-124-R-J3-PDC patient-derived colon adenocarcinoma cell line growth inhibition
Details: for IC50: curve of first compound; for viability, T/C: stronger effect = lower value
Procedure, shortened: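 Complex spheroids of tumor cells with HUVEC and human MSCs, exposed to iadademstat combined with other agents. Each agent tested in half-log steps from near clinical Cmax (else 10 microM top), DMSO ≤0.25%.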

[1] = second compound 0.1 µM, first compound 0.0316 µM
[2] = second compound 0.1 µM, first compound 0.1 µM
[3] = second compound 0.1 µM, first compound 0.316 µM
[4] = second compound 0.1 µM, first compound 1 µM
[5] = second compound 0.1 µM, first compound 3.16 µM
[6] = second compound 0.1 µM, first compound 10 µM
[7] = second compound 0.316 µM, first compound 0.0316 µM
[8] = second compound 0.316 µM, first compound 0.1 µM
[9] = second compound 0.316 µM, first compound 0.316 µM
[10] = second compound 0.316 µM, first compound 1 µM
[11] = second compound 0.316 µM, first compound 3.16 µM
[12] = second compound 0.316 µM, first compound 10 µM
[13] = second compound 1 µM, first compound 0.0316 µM
[14] = second compound 1 µM, first compound 0.1 µM
[15] = second compound 1 µM, first compound 0.316 µM
[16] = second compound 1 µM, first compound 1 µM
[17] = second compound 1 µM, first compound 3.16 µM
[18] = second compound 1 µM, first compound 10 µM
[19] = second compound 3.16 µM, first compound 0.0316 µM
[20] = second compound 3.16 µM, first compound 0.1 µM
[21] = second compound 3.16 µM, first compound 0.316 µM
[22] = second compound 3.16 µM, first compound 1 µM
[23] = second compound 3.16 µM, first compound 3.16 µM
[24] = second compound 3.16 µM, first compound 10 µM
[25] = second compound 10 µM, first compound 0.0316 µM
[26] = second compound 10 µM, first compound 0.1 µM
[27] = second compound 10 µM, first compound 0.316 µM
[28] = second compound 10 µM, first compound 1 µM
[29] = second compound 10 µM, first compound 3.16 µM
[30] = second compound 10 µM, first compound 10 µM
[31] = second compound 0.1 µM, first compound 0.00316 µM
[32] = second compound 0.1 µM, first compound 0.01 µM
[33] = second compound 0.316 µM, first compound 0.00316 µM
[34] = second compound 0.316 µM, first compound 0.01 µM
[35] = second compound 1 µM, first compound 0.00316 µM
[36] = second compound 1 µM, first compound 0.01 µM
[37] = second compound 3.16 µM, first compound 0.00316 µM
[38] = second compound 3.16 µM, first compound 0.01 µM
[39] = second compound 10 µM, first compound 0.00316 µM
[40] = second compound 10 µM, first compound 0.01 µM
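Further: spheroids exposed to agents for one week before readout.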

CC(C)c1c(-c2ccccc2)nc2c(C#N)c[nH]n2c1=O + NC1CCC(NC2CC2c2ccccc2)CC1
IC50 (second compound 0.1 µM): > 10 µM
IC50 (second compound 0.316 µM): > 10 µM
IC50 (second compound 1 µM): > 10 µM
IC50 (second compound 3.16 µM): > 10 µM
IC50 (second compound 10 µM): > 10 µM
viability, T/C [1]: 119%
viability, T/C [2]: 98.5%
viability, T/C [3]: 99.8%
viability, T/C [4]: 102%
viability, T/C [5]: 118%
viability, T/C [6]: 120%
viability, T/C [7]: 93.6%
viability, T/C [8]: 110%
viability, T/C [9]: 97.3%
viability, T/C [10]: 107%
viability, T/C [11]: 118%
viability, T/C [12]: 115%
viability, T/C [13]: 83.7%
viability, T/C [14]: 104%
viability, T/C [15]: 90%
viability, T/C [16]: 101%
viability, T/C [17]: 100%
viability, T/C [18]: 101%
viability, T/C [19]: 89.1%
viability, T/C [20]: 85.9%
viability, T/C [21]: 96.8%
viability, T/C [22]: 85.6%
viability, T/C [23]: 103%
viability, T/C [24]: 104%
viability, T/C [25]: 83.7%
viability, T/C [26]: 84.8%
viability, T/C [27]: 86.2%
viability, T/C [28]: 83.6%
viability, T/C [29]: 85.9%
viability, T/C [30]: 74.2%

CC1COCCN1c1cc(-c2ccnn2C)c2ccnc(-c3ccn[nH]3)c2n1 (stereo not given) + NC1CCC(NC2CC2c2ccccc2)CC1
IC50 (second compound 0.1 µM): 0.0285 µM
IC50 (second compound 0.316 µM): 0.0577 µM
IC50 (second compound 1 µM): 0.019 µM
IC50 (second compound 3.16 µM): 0.0227 µM
IC50 (second compound 10 µM): 0.0175 µM
viability, T/C [31]: 86.8%
viability, T/C [32]: 91.9%
viability, T/C [1]: 46.1%
viability, T/C [2]: 45.4%
viability, T/C [3]: 25.4%
viability, T/C [4]: 30.7%
viability, T/C [33]: 101%
viability, T/C [34]: 79.2%
viability, T/C [7]: 63.8%
viability, T/C [8]: 39.1%
viability, T/C [9]: 30.1%
viability, T/C [10]: 33.6%
viability, T/C [35]: 87.3%
viability, T/C [36]: 71.1%
viability, T/C [13]: 32.8%
viability, T/C [14]: 33.9%
viability, T/C [15]: 21.9%
viability, T/C [16]: 28.5%
viability, T/C [37]: 81.1%
viability, T/C [38]: 71.2%
viability, T/C [19]: 39.9%
viability, T/C [20]: 30%
viability, T/C [21]: 18.1%
viability, T/C [22]: 22.2%
viability, T/C [39]: 79.5%
viability, T/C [40]: 63.5%
viability, T/C [25]: 35%
viability, T/C [26]: 27.3%
viability, T/C [27]: 17.8%
viability, T/C [28]: 23.1%

CC1COCCN1c1cc(C2(S(C)(=N)=O)CC2)nc(-c2ccnc3[nH]ccc23)n1 (stereo not given) + NC1CCC(NC2CC2c2ccccc2)CC1
IC50 (second compound 0.1 µM): > 10 µM
IC50 (second compound 0.316 µM): > 10 µM
IC50 (second compound 1 µM): > 10 µM
IC50 (second compound 3.16 µM): > 10 µM
IC50 (second compound 10 µM): 1.39 µM
viability, T/C [1]: 105%
viability, T/C [2]: 91.5%
viability, T/C [3]: 87.8%
viability, T/C [4]: 82.8%
viability, T/C [5]: 62.6%
viability, T/C [6]: 59.9%
viability, T/C [7]: 102%
viability, T/C [8]: 98.8%
viability, T/C [9]: 95.8%
viability, T/C [10]: 100%
viability, T/C [11]: 90%
viability, T/C [12]: 58.1%
viability, T/C [13]: 98.8%
viability, T/C [14]: 78.5%
viability, T/C [15]: 84.3%
viability, T/C [16]: 66.3%
viability, T/C [17]: 63.4%
viability, T/C [18]: 65%
viability, T/C [19]: 79.5%
viability, T/C [20]: 92.4%
viability, T/C [21]: 80%
viability, T/C [22]: 67.8%
viability, T/C [23]: 61.7%
viability, T/C [24]: 51.6%
viability, T/C [25]: 81.4%
viability, T/C [26]: 71.3%
viability, T/C [27]: 80.9%
viability, T/C [28]: 52.5%
viability, T/C [29]: 43.9%
viability, T/C [30]: 43.3%

COc1ccc([C@@H](O)c2cc(-c3ncnc4cc(N5CCOCC5)ccc34)c(F)cc2Cl)nn1 + NC1CCC(NC2CC2c2ccccc2)CC1
IC50 (second compound 0.1 µM): 4.14 µM
IC50 (second compound 0.316 µM): 3.72 µM
IC50 (second compound 1 µM): 4.02 µM
IC50 (second compound 3.16 µM): 4.02 µM
IC50 (second compound 10 µM): 2.79 µM
viability, T/C [1]: 102%
viability, T/C [2]: 82.3%
viability, T/C [3]: 86.9%
viability, T/C [4]: 81.8%
viability, T/C [5]: 62.4%
viability, T/C [6]: 12.6%
viability, T/C [7]: 102%
viability, T/C [8]: 96.8%
viability, T/C [9]: 86.7%
viability, T/C [10]: 79.8%
viability, T/C [11]: 58.4%
viability, T/C [12]: 10.8%
viability, T/C [13]: 94.4%
viability, T/C [14]: 79.2%
viability, T/C [15]: 64.7%
viability, T/C [16]: 74.1%
viability, T/C [17]: 64%
viability, T/C [18]: 12.8%
viability, T/C [19]: 85.4%
viability, T/C [20]: 83.8%
viability, T/C [21]: 75.2%
viability, T/C [22]: 67.5%
viability, T/C [23]: 65.3%
viability, T/C [24]: 9.45%
viability, T/C [25]: 92.6%
viability, T/C [26]: 95.1%
viability, T/C [27]: 63.1%
viability, T/C [28]: 57.4%
viability, T/C [29]: 65.9%
viability, T/C [30]: 11.2%

O=C(C=Cn1cnc(-c2cc(C(F)(F)F)cc(C(F)(F)F)c2)n1)NNc1cnccn1 + NC1CCC(NC2CC2c2ccccc2)CC1
IC50 (second compound 0.1 µM): 0.102 µM
IC50 (second compound 0.316 µM): 0.144 µM
IC50 (second compound 1 µM): 0.0846 µM
IC50 (second compound 3.16 µM): 0.13 µM
IC50 (second compound 10 µM): 0.0846 µM
viability, T/C [31]: 106%
viability, T/C [32]: 102%
viability, T/C [1]: 99.5%
viability, T/C [2]: 49.5%
viability, T/C [3]: 31.1%
viability, T/C [4]: 19.8%
viability, T/C [33]: 119%
viability, T/C [34]: 109%
viability, T/C [7]: 97.4%
viability, T/C [8]: 59.2%
viability, T/C [9]: 28.2%
viability, T/C [10]: 11.7%
viability, T/C [35]: 115%
viability, T/C [36]: 106%
viability, T/C [13]: 106%
viability, T/C [14]: 40%
viability, T/C [15]: 30.9%
viability, T/C [16]: 12%
viability, T/C [37]: 99.3%
viability, T/C [38]: 90.8%
viability, T/C [19]: 91.8%
viability, T/C [20]: 54.9%
viability, T/C [21]: 27.8%
viability, T/C [22]: 14.2%
viability, T/C [39]: 96.8%
viability, T/C [40]: 97.3%
viability, T/C [25]: 87.3%
viability, T/C [26]: 43.2%
viability, T/C [27]: 22%
viability, T/C [28]: 15.8%

Source: PubChem BioAssay AID1918930 (Molecular Pharmacology Branch, DTP, NCI, 2023)
